Laboratory results taken from patent US10946059B2, “Formulation containing an extract of Alpinia galanga, a process for the preparation thereof, and uses thereof” (priority 2017, dated 2021).

Assays:
Assay type in all cases: in vivo, human
healthy young volunteers [1] = assay: Attention network test (ANT 1.3.0), mental alertness, Example 2
Text: The subjects were then screened. […] The subjects with body mass index (BMI) between 18.50 and 25.00 kg/m2 and a resting blood pressure≤140/90 mm Hg were considered eligible. To avoid subjects with psychotic disorders such as anxiety, depression, ADD or ADHD, subjects with Generalized Anxiety Disorder Screening (GAD-7) score≥7 & Patient Health Questionnaire-9 (PHQ-9) score≥14 were excluded from the study. Subjects with alertness score (Jin Fan's Attention Network Test, version 1.3.0) of 50±20 milliseconds at screening visit were considered eligible. Concomitant therapy was strictly prohibited in order to exclude any significant effect on the results. All the subjects were instructed thoroughly on the investigation procedures.
Subjects reported to the clinic during the morning hours and testing began at early time of day (8:00-9:00 a.m.) for each visit to avoid influence of daily challenges (related to mental and physical stress) on outcomes and the time of day was matched for all three visits to reduce variability in response due to diurnal pattern. […] Subjects were also instructed to obtain sufficient sleep during the night prior to testing which was confirmed using sleep diary. Upon arrival at clinic, subjects were asked to rest quietly for 15-20 minutes after which vital parameters were measured and a standardized meal of approximately 200 calories was provided to control variations from possible digestion confounds. Baseline data were collected 30 minutes post breakfast followed by administration of IP, wherein one dose of the product was administered to subject by trial coordinator at investigational site.
Post ingestion of IP, data were collected at 1, 3, and 5 hours. No other food or calorie-containing beverages were provided. Subjects were allowed to drink water as desired. Subjects were allowed to relax in an isolated room at a comfortable temperature and free to use the computer, listen to music or read magazines during the clinic stay period. To analyze the effect on IP on sleep architecture, a second dose was supplied in a labeled bottle to be taken before dinner in the night of the same day and subjects were asked to record all the details pertaining to sleep quality and duration in sleep diary. To ensure treatment compliance, product accountability was monitored by clinical research coordinator on the following visit.
The primary efficacy variable was mental alertness. Alertness is defined as achieving and maintaining a state of high sensitivity to incoming stimuli. The Attention network test (ANT) was implemented for this purpose as it provides a behavioral measure of the efficiency of the different components of attention networks separately within a single task. The downloaded JAVA version of ANT 1.3.0 (Fan et al., 2002, 2005) was used to conduct the trial. The subject was seated in a silent and secluded room. All external distractions were avoided and subjects were asked to give complete attention to the task at hand. Mental alertness in ANT was calculated in terms of difference score quantified in milliseconds and calculated by subtracting average double-cue RTs from the no-cue RTs. […]

[2] = tested on: subjects (male and female) habituated to average caffeine consumption; assay: Attention Network Test (CRSD-ANT), Example 1: mean response time, alertness, orientation, executive attention; conditions: day 7 after IP, compared to placebo
Experimental: Only right-handed subjects were included in the study to avoid spatial bias. […] The subjects had to refrain from smoking 24 h before study onset and refrain from alcohol intake throughout the study. Subjects with a history or presence of clinically important cardiac, renal, hepatic, endocrine (including diabetes mellitus), pulmonary, biliary, gastrointestinal, pancreatic, or neurological disorders and uncontrolled hypertension were excluded from the study. For each subject, the study was terminated after data collection on the assessment day. […] The IPs included Cymbopogon flexuosus (LG), water-soluble and water-insoluble extracts of Alpinia galanga (AG1 and AG2 respectively), and water-soluble and water-insoluble extracts of Glycyrrhiza glabra (GG1 and GG2 respectively). All interventions were administered to subjects in the form of identical capsules that had been packed in duly labeled HDPE bottles. […] The subjects were allowed to drink water as desired and allowed to relax in an isolated room at a comfortable temperature and were free to use a computer, listen to music, or read magazines during the clinic stay period. […] To ensure treatment compliance, product accountability was monitored by a clinical research coordinator on the following visit. […] Effects of IPs on different aspects of the attention network, such as alertness, orientation, and executive control, were also assessed by ANT. […]

healthy young volunteers [3] = assay: Psychomotor Vigilance Task (PVT), sustained attention, Example 2; conditions: mean ± SD
Text: Subjects were derived through multiple sources including a healthy volunteer's database and a consumer group's survey agency. The subjects were then screened. […] The subjects with body mass index (BMI) between 18.50 and 25.00 kg/m2 and a resting blood pressure≤140/90 mm Hg were considered eligible. To avoid subjects with psychotic disorders such as anxiety, depression, ADD or ADHD, subjects with Generalized Anxiety Disorder Screening (GAD-7) score≥7 & Patient Health Questionnaire-9 (PHQ-9) score≥14 were excluded from the study. […] Concomitant therapy was strictly prohibited in order to exclude any significant effect on the results. All the subjects were instructed thoroughly on the investigation procedures. Subjects were randomized and allocated to interventional products in each visit, divided in four treatment arms based on randomization chart [SPSS version 10.0, IBM] and similar trend was followed for subsequent visits. […] All these treatments were administered to subjects in the form of capsules which were identical in appearance and packed in duly labeled HDPE bottles. The blinding codes were secured at the site in tamper-evident sealed envelopes with no access to the investigators. Thus, the double blind nature of the data were ensured and strictly followed. […] Composition details of all these IPs are: Subjects reported to the clinic during the morning hours and testing began at early time of day (8:00-9:00 a.m.) for each visit to avoid influence of daily challenges (related to mental and physical stress) on outcomes and the time of day was matched for all three visits to reduce variability in response due to diurnal pattern. […] Subjects were also instructed to obtain sufficient sleep during the night prior to testing which was confirmed using sleep diary. Upon arrival at clinic, subjects were asked to rest quietly for 15-20 minutes after which vital parameters were measured and a standardized meal of approximately 200 calories was provided to control variations from possible digestion confounds. […] Post ingestion of IP, data were collected at 1, 3, and 5 hours. No other food or calorie-containing beverages were provided. Subjects were allowed to drink water as desired. Subjects were allowed to relax in an isolated room at a comfortable temperature and free to use the computer, listen to music or read magazines during the clinic stay period. […] To ensure treatment compliance, product accountability was monitored by clinical research coordinator on the following visit. […] The mean MRT was calculated in milliseconds, which is the time a subject took to press the response button as soon as each stimulus appeared. […]

Cn1c(=O)c2c(ncn2C)n(C)c1=O [Caffeine, caffeine]
ANT-Alertness (Mental Alertness) score (healthy young volunteers [1]; 1H: value at 1 hour, PP population, mean ± SD): 57.0 ± 18.1 ms | increase in alertness score from baseline (healthy young volunteers [1]; at one hour): 8.97 ± 18.20 ms | decrease in alertness score from baseline (healthy young volunteers [1]; at three hours): 1.23 ± 18.60 ms | subjects that would exhibit higher alertness than the subjects in the placebo group (healthy young volunteers [1]; from Cohen's d): 47% | effect size in alertness score, Cohen's d (healthy young volunteers [1]; in comparison with placebo): 0.08 | alertness [2]: decrease in alertness compared to the placebo group | PVT-Mean Response Time (Sustained Attention) (healthy young volunteers [3]; 1H: value at 1 hour): 290.1 ± 51.6 ms | PVT-Mean Response Time (Sustained Attention) (healthy young volunteers [3]; 3H: value at 3 hours): 287.6 ± 43.1 ms | PVT-Mean Response Time (Sustained Attention) (healthy young volunteers [3]; 5H: value at 5 hours): 296.9 ± 51.5 ms | PVT-Mean Response Time (Sustained Attention) (healthy young volunteers [3]; BL: baseline value): 310.4 ± 103.3 ms
